Assay results from publication PMC8685350, “Activation of the SARS-CoV-2 NSP14 3′–5′ exoribonuclease by NSP10 and response to antiviral inhibitors” (The Journal of Biological Chemistry, 2021).

Columns and labels:
NSP14 = target: T1, NSP14 (Severe acute respiratory syndrome coronavirus 2, UniProt P0DTD1); assay type: binding
T1 construct: gene rep; full-length NSP14, mature chain of replicase polyprotein 1ab; N-terminal His-tag (pDEST527), E. coli Rosetta2

NSP10/14 complex [1] = target: T2, NSP10/14 complex (Severe acute respiratory syndrome coronavirus 2, UniProt P0DTD1); assay type: binding
T2 construct: gene rep; full-length NSP14 and NSP10 (139 aa), mature chains of replicase polyprotein 1ab; N-terminal His-tags (pDEST527), E. coli Rosetta2; assembled in vitro, copurified on Mono S, near stoichiometric; with Non-structural protein 10

NSP10/14 complex [2] = target: T2, NSP10/14 complex; assay: biochemical

With `Nc1ncnc2c1ncn2[C@@H]1O[C@H](CSCC[C@H](N)C(=O)O)[C@@H](O)[C@H]1O` [S-adenosylhomocysteine] as the compound, how does the “Tm at 40 μM SAH (control Tm 43.1 ± 0.2 °C)” value (NSP14) read?
The value was 48.5 ± 0.17 °C.

And the “Tm at 400 μM SAH” value (NSP10/14 complex [1])?
The value was 48.2 ± 0.2 °C.

And the EC50 (NSP10/14 complex [2])?
Its EC50 is 25 ± 9 µM.
